Measured values from ChEMBL document CHEMBL3596141, “Isolation and Structure Elucidation of Fujikurins A-D: Products of the PKS19 Gene Cluster in Fusarium fujikuroi” (J Nat Prod, 2015).
Calls of active or inactive are those of the source. The calls are words filed in the database; no cut-off is given here.

Test system: HepG2
Assay: Cytotoxicity against human HepG2 cells assessed as cell viability up to 100 uM after 48 hrs by CCK-8 assay
Type: functional, cell-based

CCC(C)C(=O)C1=C(O)C(C)C(C)OC1=O (stereo unspecified)
Activity: inactive
